Here are results for 34 compounds from a melting point compilation (Tetko et al.; mined from patent text by program, amines drawn as free bases though some values may be those of a salt).

In general, melting point refers to the temperature, or range, at which the solid turns liquid. With `CC(C)(C)c1cc(C(=O)c2c[nH]c(SC#N)c2)cc(C(C)(C)C)c1O`, the melting point is 230 to 231 °C.

In the case of `CC(C)(C)OC(=O)NC1CCN(CC23CC(c4ccccc42)c2ccc(Cl)cc23)CC1` (centres undefined), the melting point lay in the range of 76.5 to 80 °C.

`CCC(Sc1cc2ccccc2n1C)(C(=O)OC)c1ccccc1` (centres undefined): the melting point fell in the range of 90 to 91 °C.

Regarding `Cc1cc(O)cc(O)c1C=O`, the melting point fell in the range of 174 to 177 °C.

Compound `Cc1ccc(SC(Cc2ccc(OCCN(C)c3nc4ccccc4o3)cc2)C(=O)O)cc1` (centres undefined) gave a melting point of 137 °C.

In turn, `Fc1cccc(CNC(=S)N2CCc3c([nH]c4ccccc34)C2c2ccc3c(c2)OCO3)c1` (centres undefined) displayed a melting point of 179 to 181 °C.

In the case of `N#CCN1C(=O)N(c2ccc(C#N)c(C(F)(F)F)c2)C(=O)C12CCOCC2`, the melting point was 210 to 211 °C.

The compound `O=C(Nc1cccc(C(F)(F)F)c1)c1cccc2cc(OS(=O)(=O)C(F)(F)F)ccc12` returned a melting point of 177 to 178 °C.

On to `COc1cc(Br)c(-n2c(=O)[nH]c3c(-c4ccccc4C(F)(F)F)nc(C)nc32)c(OC)c1`, for which the melting point is 255 to 256 °C.

Compound `CC(OCc1cc2nc(Cl)ccc2n1S(=O)(=O)c1ccc2nc(N)sc2c1)C(=O)O` (centres undefined) displayed a melting point of 218 to 220 °C.

The compound `CCOc1cc([N+](=O)[O-])c(N)cc1C(=O)OC` showed a melting point of 156 to 157 °C.

`CCN1CCCC1CNC(=O)c1sc(CO)c(C)c1OC` (centres undefined) gave a melting point of 118 to 119 °C.

Turning to `O=C(CCCN1CCC2(CC1)SC(c1ccc(Cl)cc1)c1ccccc12)c1ccc(F)cc1F` (centres undefined), the melting point fell in the range of 98 to 100 °C.

Regarding `O=C(Nc1ccccc1)Nc1ccc(Cc2ccc(NC3=NCCN3)cc2)cc1`, the melting point was 167 to 170 °C.

For `CCNC(=O)c1ccc2cc(-c3csc(N(C)S(=O)(=O)c4ccccc4)n3)c(=O)[nH]c2c1`, the melting point was above 300 °C.

With `COCCCNC(=O)c1ccc(C(=O)N2CCN(c3ncccc3NCC(C)C)CC2)nc1`, the melting point was in the range of 109 to 110 °C.

Consider `CC(=O)NCc1ccc2c(c1)N(C1CCN(CCCc3ccc(F)cc3)CC1)CC2`, for which the melting point lay in the range of 128 to 130 °C.

As to `COc1nc(C)nc(NC(=O)NS(=O)(=O)c2ccccc2C(=O)Nc2nc[nH]n2)n1`, the melting point is 176 to 179 °C.

`Clc1ccc(-c2cc(C3CCN(Cc4ccc5ccccc5c4)CC3)n[nH]2)cc1` registered a melting point of 180 to 181 °C.

For `CCN1CCc2cc3ccccc3n2CC1`, the melting point is 44 to 46 °C.

Take `CCCCC1CCCC2=C1C(=O)c1ccccc1C2=O` (centres undefined): the melting point was in the range of 64 to 65 °C.

Compound `CCC(=O)NCC1CC12c1cc(OC)ccc1-c1ccc(OC)cc12` (centres undefined) registered a melting point of 145 to 147 °C.

In turn, `COc1ccc2[nH]cc(C3=CCN(C(=O)NCC4CCC(c5ccccc5)(N(C)C)CC4)CC3)c2c1` (centres undefined) gave a melting point of 98 to 104 °C.

Take `O=c1[nH]c2ccccc2n1C1=CCN(C2C=CC(c3ccc(F)cc3)(c3ccc(F)cc3)CC2)CC1` (centres undefined): the melting point was 200 to 202 °C.

Take `O=C1N(Cc2ccc(C(F)(F)F)o2)c2cccc(Cl)c2C12COc1cc3c(cc12)CCO3` (centres undefined): the melting point was 166 to 169 °C.

`N#Cc1ccc2c(c1)Cc1cc(C#N)ccc1-2` returned a melting point of 282 to 284 °C.

Turning to `COc1ccc(C2CNC(=O)C2)cc1OCCC(C)N1CCN(c2ccccc2)CC1` (centres undefined), the melting point was in the range of 88 to 90 °C.

`OC(Cc1ccncc1)(c1ccccc1)c1ccccc1` came in with a melting point of 154 to 155 °C.

On to `CCCn1c(=O)c2[nH]c(C3CC4CCC3C4)nc2n(CCC)c1=O` (centres undefined), for which the melting point lay within 136 to 138 °C.

`O=C(C[C@@H](CCCC1CCCCC1)c1nc(CNC2CCOCC2)no1)NO` showed a melting point of 109 to 110 °C.

As to `O=C(Nc1ccccc1)OC(C1CC1)C1CC1`, the melting point was 92 to 94 °C.

Turning to `CC(C)(C)c1ncc(O)c(Cl)n1`, the melting point was found to be 108 °C.

`CCCCOc1cc2c3c(ccc4c5ccc6c7c(cc(OCCCC)c(c1c34)c75)-c1ccccc1C6=O)C(=O)c1ccccc1-2` displayed a melting point of 275 to 280 °C.

As to `CC(=O)NCCC1CCNCC1`, the melting point was found to be 60 °C.
